One series has as its system angiogenesis. The note with it: previously demonstrated; cited from earlier work.
Series [1] deals with Human umbilical vein endothelial cells (HUVEC). Nature of the series: HUVEC angiogenesis (network formation on Matrigel) assay. The format is cell-based. The note with it: 24 h incubation, 1-100 μM, read-out: Inhibition of HUVEC network formation IC50.
Protocol: Mebendazole was dissolved in 50 μl of DMSO and diluted with endothelial growth medium (EGM) to a final concentration of 1 mM. The highest concentration of DMSO is 0.1%. Human umbilical vein endothelial cells (HUVEC) were purchased from Cambrex Co. (East Rutherford, N.J., USA) and maintained in endothelial growth medium (EGM) supplemented with 2% FBS, 0.1% EGF, 0.1% hydrocortisone, 0.1% GA-1000, and 0.4% BBE. Morphogenesis assay on Matrigel was performed according to the manufacturer's instructions (Chemicon International). The ECMatrix™ kit consists of laminin, collagen type IV, heparan sulfate, proteoglycans, entactin, and nidogen. It also contains various growth factors (TGF-beta, FGF) and proteolytic enzymes (plasminogen, tPA, and MMPs) that are normally produced in EHS tumors. The incubation condition was optimized for maximal tube-formation as follows: 50 μl of EC Matrix™ was suitably diluted in a ratio 9:1 with 10× diluent buffer and used to coat the 96-well plate. The coated plates were incubated at 37° C. for 1 hr to allow the Matrix solution to solidify. HUVECs were cultured for 24 h in EGM with 2% FBS, trypsinized and re-suspended in the growth medium. […]
The efficiency of Mebendazole to inhibit the VEGFR2 kinase was measured by monitoring the ability of HUVECs to form networks.
Another series concerns the target VEGFR2 (Homo sapiens, UniProt P35968). The note with it: read-out: VEGFR2 kinase activity IC50; 450 uM ATP, 60 minutes at room temperature, duplicate wells.
For series [2] the following is noted: humans; cited from earlier work.
Series [3] relates to MDA-MB-231 invasive breast cancer cell line. Nature of the series: Growth inhibition of MDA-MB-231 cells, MTS assay. The format is cell-based. The conditions noted are these: Homo sapiens, 48 hrs exposure. The method, then:
MDA-MB-231 cells were seeded at 4000 cells/well in a 96 well plate. […] Three wells per concentration were treated 24 h post seeding, and the MTS assay was performed 48 h post treatment. The CellTiter96 Aqueous Non-Radioactive Cell Proliferation Assay kit (Promega) was used according to the manufacturer's recommendations. The absorbance values were measured at 490 nm and viable cells presented as a percentage of the absorbance of DMSO-only treated cells. IC50 and R^2 values were calculated with the Graphpad Prism software.
(In general: Formazan colour is commonly taken as a measure of viable cells.)

For series [4] the following is noted: rats; cited from earlier work.

Among the data in US20150324546A1, “METHOD FOR PREDICTING DRUG-TARGET INTERACTIONS AND USES FOR DRUG REPOSITIONING” (GEORGETOWN UNIVERSITY, priority 2012, published 2015) are Inhibition of angiogenesis, IC50 and Circulating levels values, retold here.

Like-named read-outs stand apart in the source and are kept apart here.

Sequence of VEGFR2 (P35968 20-1356, species assumed): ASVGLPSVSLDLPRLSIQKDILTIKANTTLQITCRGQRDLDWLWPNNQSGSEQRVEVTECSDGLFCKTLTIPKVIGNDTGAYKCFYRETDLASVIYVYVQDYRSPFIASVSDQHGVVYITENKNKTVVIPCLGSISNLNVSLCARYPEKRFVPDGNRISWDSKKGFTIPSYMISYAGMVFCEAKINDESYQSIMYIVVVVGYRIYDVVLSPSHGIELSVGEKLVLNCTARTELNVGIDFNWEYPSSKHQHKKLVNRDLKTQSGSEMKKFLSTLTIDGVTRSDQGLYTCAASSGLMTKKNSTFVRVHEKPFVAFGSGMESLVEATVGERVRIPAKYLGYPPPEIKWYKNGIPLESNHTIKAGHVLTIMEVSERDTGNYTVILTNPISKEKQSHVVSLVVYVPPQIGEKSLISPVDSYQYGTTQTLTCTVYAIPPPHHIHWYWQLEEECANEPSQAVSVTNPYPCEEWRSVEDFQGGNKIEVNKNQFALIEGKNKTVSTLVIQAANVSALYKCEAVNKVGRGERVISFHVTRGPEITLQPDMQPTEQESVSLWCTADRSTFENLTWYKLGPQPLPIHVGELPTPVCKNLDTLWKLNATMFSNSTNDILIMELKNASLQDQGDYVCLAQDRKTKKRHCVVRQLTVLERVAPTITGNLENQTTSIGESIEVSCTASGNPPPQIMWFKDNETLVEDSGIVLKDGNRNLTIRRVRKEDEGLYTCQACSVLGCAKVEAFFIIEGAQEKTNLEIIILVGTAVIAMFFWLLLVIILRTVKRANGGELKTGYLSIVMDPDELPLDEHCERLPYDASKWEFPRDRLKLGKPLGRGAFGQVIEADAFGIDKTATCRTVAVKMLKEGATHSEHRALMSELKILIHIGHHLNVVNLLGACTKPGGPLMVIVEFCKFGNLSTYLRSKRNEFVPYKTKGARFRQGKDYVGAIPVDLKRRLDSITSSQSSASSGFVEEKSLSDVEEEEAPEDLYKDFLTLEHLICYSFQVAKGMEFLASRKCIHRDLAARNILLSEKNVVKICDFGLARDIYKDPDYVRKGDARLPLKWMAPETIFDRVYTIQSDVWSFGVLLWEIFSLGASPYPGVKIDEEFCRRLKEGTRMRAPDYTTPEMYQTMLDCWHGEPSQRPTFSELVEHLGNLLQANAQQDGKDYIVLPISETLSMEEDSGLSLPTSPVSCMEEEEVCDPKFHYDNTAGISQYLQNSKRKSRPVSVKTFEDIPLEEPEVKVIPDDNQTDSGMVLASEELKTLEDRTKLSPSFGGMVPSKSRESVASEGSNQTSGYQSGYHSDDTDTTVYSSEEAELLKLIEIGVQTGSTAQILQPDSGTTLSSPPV
Protocol for VEGFR2: The VEGFR2 kinase assay was performed by using the Caliper LabChip 3000 and a 12-sipper LabChip. […] The off-chip incubation mobility-shift kinase assay uses a microfluidic chip to measure the conversion of a fluorescent peptide substrate to a phosphorylated product. The reaction mixture, from a microtiter well plate, is introduced through a capillary sipper onto the chip, where the nonphosphorylated substrate and phosphorylated product are separated by electrophoresis and detected via laser-induced fluorescence.
The assay reaction is: Fluorescein-peptide+ATP→fluorescein-phosphopeptide+ADP, which is measured by charge separation of phosphorylated product and unphosphorylated substrate. […] Following addition of ATP, samples were incubated for 60 minutes at room temperature and the reaction was terminated by the addition of stop buffer containing 100 mM HEPES (pH 7.5), 7 mM EDTA, 0.015% Brij-35, 4% DMSO. Phosphorylated product and unphosphorylated substrate were separated by charge using electrophoretic mobility shift. The product formed is compared to control wells to determine inhibition or enhancement of enzyme activity.
IC50 curves were generated using GraphPad 5 and a standard 4-parameter non-linear regression model (log [inhibitor] vs response−variable slope). Data points correspond to the averages of duplicate wells, and error bars represent the mean±replicate % activity.

With `CCCSc1ccc2nc(NC(=O)OC)[nH]c2c1` [Albendazole], in the series with angiogenesis, the Inhibition of angiogenesis result is “inhibit angiogenesis”.

As a reminder, the IC50 is the point on the concentration scale where inhibition reaches its midpoint. Regarding `COC(=O)Nc1nc2ccc(C(=O)c3ccccc3)cc2[nH]1` [Mebendazole], the IC50 came to 8.8 µM in series [1] and 3.6 µM at VEGFR2.

As for `Cc1ccc(-c2cc(C(F)(F)F)nn2-c2ccc(S(N)(=O)=O)cc2)cc1` [celecoxib], the Circulating levels in series [2] and in series [4] was 1 to 10 µM in each case. This compound also gave a half-inhibitory concentration (IC50) in series [3] of 40 µM.

For the compound `Cc1ccc(C)c(-c2cc(C(F)(F)F)nn2-c2ccc(S(N)(=O)=O)cc2)c1` [dimethyl celecoxib], the IC50 in series [3] stood at 36 µM.
